{
  "source": "patent US6989375B2",
  "about": "“Enhanced expression of transgenes” (priority 1996, dated 2006)",
  "key": {"H460 cells": {"test_system": "H460 cells", "assay": "Quantitation of β-gal gene expression by ONPG assay at increasing MOI", "type": "cell-based, human", "conditions": "for β-gal gene expression (ONPG): CDDP = treated cells, Ad/CMV/β-gal = control cells without CDDP", "experimental": "(§1) Quantitation of β-gal Gene Expression: Adenoviral infection was performed 2 days after exposure to CDDP (0.062 μg/ml×24 hours), with cell extracts being obtained 24 hours later and quantitatively assayed for the expression of the β-galactosidase gene using O-nitrophenyl β-d-galactoside (ONPG) as a substrate (MacGregor et al., 1987). The magnitude of CDDP-induced enhancement of gene expression at a given MOI was determined by calculating the enhancement index: [formula] In Vivo CDDP-Induced Enhancement of β-gal Gene Expression\n(§2) To determine if prior incubation of target cells with CDDP would result in an increase in the ability of cells to take up gene-delivering vectors or an increase in the expression of successfully delivered genes, β-gal gene expression was quantitated in H1299 and H460 cell lines treated with CDDP and then infected with Ad/CMV/β-gal at increasing MOI's. If CDDP mediates an enhancement of adenovirus uptake as compared to non-treated controls, then there should be a proportional increase in enhancement indices with increasing MOI's. […] Similarly, β-gal gene expression in CDDP-treated H460 cells increased from 0.28±0.06 to 12.2±2.1 U/mg protein, as compared to β-gal gene expression in control H460 cells of 0.056±0.016 to 7.6±1.8 U/mg protein. The enhancement indices in H460 cells, therefore, decreased from a value of 5 at an MOI of 5, to a value of 1.6 at an MOI of 100 (FIG. 2B). This observation implies that CDDP induces an increase in the expression of successfully delivered genes and not an increase in adenovirus uptake."}, "H1299 cells [1]": {"test_system": "H1299 cells", "assay": "Quantitation of β-gal gene expression by ONPG assay at increasing MOI", "type": "cell-based, human", "conditions": "for Enhancement index: CDDP 0.062 μg/ml×24 h; for β-gal activity (ONPG): CDDP = cells treated 0.062 μg/ml×24 h, infected 2 days later, Ad/CMV/β-gal = control cells without CDDP", "experimental": "as §1, §2"}, "[2]": {"test_system": "CDDP-resistant ovarian carcinoma cells (2008)", "conditions": "CDDP four to six weeks prior (in vitro) or once one week prior (in vivo); cited from earlier work"}, "H1299 cells [3]": {"test_system": "H1299 cells", "assay": "Cell growth after 24-hour incubation with CDDP", "type": "cell-based, human"}, "H1299 cells [4]": {"test_system": "H1299 cells", "assay": "In situ TUNEL assay for apoptosis", "type": "cell-based, human", "conditions": "CDDP = prior CDDP treatment, Ad/CMV/p53 = not exposed to CDDP", "experimental": "CDDP-treated or control H1299 cells were fixed in 50% acetone/ethanol for 20 minutes at −20° C. 12 hrs and 24 hrs after transfection with Adv/CMV/p53 (MOI=5). In situ TdT (terminal deoxynucleotidyl transferase)-mediated dUTP-biotin nick end-labeling (TUNEL) assay was performed according to the procedure described elsewhere (Gavrieli et al., 1992). H1299 cells used as positive controls were treated with DNAse I (Gibco BRL, Gaithersburg, Md.), for 1 hr at 37° C. (50 μg/ml in 10 mM Tris-HCI pH=7.5; 140 mM sodium cacodylate, 4 mM MgCl2, 10 mM dithiothreitol)."}, "A549": {"test_system": "A549", "assay": "β-gal expression by X-gal staining after Ad/CMV/β-gal infection of CDDP-treated cells", "type": "cell-based, human", "conditions": "gene transfer 48 hours after exposure to 0.062 μg/ml of CDDP; MOI=10", "experimental": "(§3) The human non-small cell lung carcinoma cell lines H1299 and H460 were grown in RPMI-1640 medium supplemented with 5% heat-inactivated fetal calf serum (FCS), 10 mM glutamine, 100 units/ml of penicillin, 100 μg/ml of streptomycin and 0.25 μg/ml of amphotericin B. Human non-small cell lung carcinoma cell lines H358, H226br, and the cervical cancer cell line SiHa were maintained in complete RPMI-1640 medium supplemented with 10% FCS. The cell line A549 (human, non-small cell lung carcinoma) was grown in Ham's F12 nutrient mixture solution (Gibco BRL, Gaithersburg, Md.) similarly supplemented with antibiotics, glutamine and 10% FCS.\n(§4) Gene Delivery Protocol: In vitro gene delivery was performed by incubating cells in six-well plates (Falcon Plastics, Lincoln Park, N.J.) for two hours with Adv/CMV/β-gal in appropriate medium supplemented with 2% FCS. The multiplicity of infection (MOI: number of viral particles per target cell) was based on cell counts of untreated wells. Fresh, complete medium with the appropriate concentration of FCS was then added to the wells at the end of the infection period and cells were then incubated for 20 hours at 37° C., 5% CO2. […] The transduction efficiency by Adv/CMV/β-gal was determined by the percentage of positive stained cells (blue) for β-galactosidase activity (1000 cells counted per well)."}, "[5]": {"test_system": "primary normal human bronchial epithelial (NHBE) cells", "assay": "β-gal expression by X-gal staining after Ad/CMV/β-gal infection of CDDP-treated normal cells", "type": "cell-based", "conditions": "CDDP 0.062 μg/ml; 90% confluent", "experimental": "as §3, §4"}},
  "data": [
    {"smiles": "N.N.[Cl][Pt][Cl]", "note": "[CDDP, cis-dichlorodimminocisplatin]", "values": [
      {"measurement": "β-gal gene expression (ONPG)", "setting": "H460 cells; MOI 5", "value": "0.28±0.06", "unit": "U/mg protein"},
      {"measurement": "β-gal gene expression (ONPG)", "setting": "H460 cells; MOI 100", "value": "12.2±2.1", "unit": "U/mg protein"},
      {"measurement": "Enhancement index", "setting": "H460 cells; MOI of 5", "value": 5},
      {"measurement": "Enhancement index", "setting": "H460 cells; MOI of 100", "value": 1.6},
      {"measurement": "Enhancement index", "setting": "H1299 cells [1]; MOI 5", "value": 3},
      {"measurement": "β-gal activity (ONPG)", "setting": "H1299 cells [1]; MOI 5", "value": "2.2±0.40", "unit": "U/mg protein"},
      {"measurement": "Enhancement index", "setting": "H1299 cells [1]; MOI 100", "value": 2.5},
      {"measurement": "β-gal activity (ONPG)", "setting": "H1299 cells [1]; MOI 100", "value": "42.0±2.6", "unit": "U/mg protein"},
      {"measurement": "Gene transduction after CDDP exposure prior to liposome-mediated gene transfer", "setting": "[2]", "value": "enhanced gene transduction"},
      {"measurement": "Cell growth, initial response", "setting": "H1299 cells [3]; CDDP at 1 and 4 μg/ml for 24 hours, cells viable by trypan blue exclusion", "value": "significant depression of growth to complete inhibition of proliferation"},
      {"measurement": "Cell growth compared to control cell populations", "setting": "H1299 cells [3]; CDDP concentrations lower than 0.25 μg/ml", "value": "remained unchanged"},
      {"measurement": "Apoptosis (TUNEL-positive cells)", "setting": "H1299 cells [4]; 12 hrs after Ad/CMV/p53 transfection (MOI=5)", "value": "much higher frequency than in untreated cells"},
      {"measurement": "Apoptosis (TUNEL-positive cells)", "setting": "H1299 cells [4]; 24 hrs after Ad/CMV/p53 transfection (MOI=5)", "value": "almost all CDDP-treated cells stained positive for DNA fragmentation"},
      {"measurement": "Magnitude of maximal enhancement of transgene expression (FIG. 4B)", "setting": "A549", "value": 1.6, "unit": "fold"},
      {"measurement": "Enhancement of gene expression in stationary normal cells", "setting": "[5]", "value": "failed to enhance gene expression"}
    ]}
  ]
}
